Test results taken from US6365201B1, “Phytodrug for management of peptic ulcer and methods of preparing and using same” (National Institute for Pharmaceutical Research and …, priority 1997, dated 2002).

Tested on: small intestinal transit
Assay: Small intestinal transit in mice, charcoal meal method
Assay type: in vivo
Details: reference, dose not given
Experimental: Drugs that delay the small intestinal transit time have beneficial effects on ulcer patients. The effect of the Indigofera […] extract on small intestinal transit in mice was tested using the charcoal meal method.

## NC[C@H](O)c1ccc(O)c(O)c1 [Noradrenaline]
  % distance traveled: 64.6 ± 9.0%
  % inhibition: 35.4%
